Source: patent publication US6802882B2, “Nitrification inhibitors, and the use of polyacids which contain a nitrification inhibitor for the treatment of inorganic fertilizers” (BASF Aktiengesellschaft, priority 1996, dated 2004)

What was measured:
[1] = Storage stability rapid test of treated inorganic fertilizers (loss of nitrification inhibitor); type: physicochemical; settings: on ammonium sulfate nitrate carrier fertilizer; 4 weeks at 30° C., 40 to 50% relative atmospheric humidity, approx. 1.2 m/s air velocity
Method: The carrier fertilizer used was ammonium sulfate nitrate (ASN). 2 g of pyrazole were dissolved in a little water, and if desired (see Table I) the solution was mixed with a stoichiometric amount of phosphoric acid (1:1) and with from 1 to 10 g of polyacrylic acid or polyphosphoric acid. […] of the carrier fertilizer in the form of granules were prewarmed to approximately 50° C. and slowly sprayed onto a turntable with the mixture containing the pyrazole compound. To accelerate the drying, drying was carried out with hot air, either at the end of the spraying or after interruption of the spraying.
The storage stability of the treated inorganic fertilizers was determined in a rapid test in which the nitrification-inhibited inorganic fertilizers were stored in a ventilated warming cabinet for 4 weeks at 30° C., from 40 to 50% relative atmospheric humidity and approximately 1.2 m/s air velocity. The concentration of nitrification inhibitor on the inorganic fertilizer was determined before and after storage and the loss of nitrification inhibitor determined in percent. Approximately 10 to 30 g of treated inorganic fertilizer were stored in each case. The concentration of pyrazole compound as nitrification inhibitor in this case was from 0.05% by weight to 0.2% by weight at the start of the investigation, based on the treated inorganic fertilizer.

nitrification [2] = assay: Nitrification inhibiting effect of different pyrazoles; parameters: concentration or dose not given beside the values
rape plants = assay: Field tests: NO3 amount in the basis of the stem of rape plants; type: in vivo; settings: n = 5, locations 1-5
Method: (§1) The biological effectiveness of 4-chloro-3-methylpyrazole (4 Cl-3MP) and 3,4-dimethylpyrazole (3,4-DMP) in comparison with DCD and the control was tested in multiple field tests in different environments by means of the features “nitrate content in the basis of the stem”, “NO3— and NH4—N-content in the soil” as well as “grain produce”. The standard methods used in agricultural tests were applied to the laying-out, probing, harvesting and evaluation of the field tests. The analysis of the plant and soil samples followed standard procedures. The remaining measures undertaken in the production, e.g. plant protection, were in accordance with good agricultural practice and were applied uniformly. As a consequence of this treatment the nitrate consumption of the plants is reduced (compare NO3-content in the basis of the stem of rape plants, table 2) and the produce is enhanced (compare grain produce of winter wheat, tables 3a and 3b).

nitrification [3] = assay: Field tests: NO3- and NH4-N-amounts in soil; type: in vivo; settings: for Ø NH4-N amount in soil / Ø NO3-N amount in soil: n = 5, locations 1-5; for biological effectiveness (in words): field tests, results of table 1, reduced amounts of the active substance versus DCD
Method: The biological effectiveness of 4-chloro-3-methylpyrazole (4 Cl-3MP) and 3,4-dimethylpyrazole (3,4-DMP) in comparison with DCD and the control was tested in multiple field tests in different environments by means of the features “nitrate content in the basis of the stem”, “NO3— and NH4—N-content in the soil” as well as “grain produce”.
The standard methods used in agricultural tests were applied to the laying-out, probing, harvesting and evaluation of the field tests.
The analysis of the plant and soil samples followed standard procedures. The remaining measures undertaken in the production, e.g. plant protection, were in accordance with good agricultural practice and were applied uniformly.

winter wheat = assay: Field tests: grain produce of winter wheat; type: in vivo
Method: as §1

Compound	Loss in percent (loss of nitrification inhibitor during storage) [1] [%]	% inhibition per applied amount of ammonium (nitrification [2]; column head 1) [%]	% inhibition per applied amount of ammonium (nitrification [2]; column head 2) [%]	% inhibition per applied amount of ammonium (nitrification [2]; column head 4) [%]	% inhibition per applied amount of ammonium (nitrification [2]; column head 6) [%]	% inhibition per applied amount of ammonium (nitrification [2]; column head 8) [%]	Ø NO3 amount in the basis of the stem of rape plants (rape plants; 2 weeks after application) [ppm]	Ø NO3 amount in the basis of the stem of rape plants (rape plants; 4 weeks after application) [ppm]	Ø NO3 amount in the basis of the stem of rape plants (rape plants; 6 weeks after application) [ppm]	Ø NO3 amount in the basis of the stem of rape plants (rape plants; 8 weeks after application) [ppm]	Ø NH4-N amount in soil (nitrification [3]; 2 weeks after application) [kg/ha]	Ø NO3-N amount in soil (nitrification [3]; 2 weeks after application) [kg/ha]	Ø NH4-N amount in soil (nitrification [3]; 4 weeks after application) [kg/ha]	Ø NO3-N amount in soil (nitrification [3]; 4 weeks after application) [kg/ha]	Ø NH4-N amount in soil (nitrification [3]; 6 weeks after application) [kg/ha]	Ø NO3-N amount in soil (nitrification [3]; 6 weeks after application) [kg/ha]	Ø NH4-N amount in soil (nitrification [3]; 8 weeks after application) [kg/ha]	Ø NO3-N amount in soil (nitrification [3]; 8 weeks after application) [kg/ha]	further results
Cc1c[nH]nc1C [3,4-Dimethylpyrazole, 3,4-dimethylpyrazole]	100	88	61	48	34	27	8105	6720	4899	4454	82	54	70	43	71	44	37	28	biological effectiveness (in words) (nitrification [3]): as good as or better than that of DCD; grain produce of winter wheat (winter wheat; location 2 (lean clay)): 97.8 dt/ha
Cc1n[nH]cc1Cl [4-Chloro-3-methylpyrazole, 4-chloro-3-methylpyrazole]	100	88	66	48	32	21	8112	6629	4774	4276	115	61	79	50	76	39	40	28	biological effectiveness (in words) (nitrification [3]): as good as or better than that of DCD; grain produce of winter wheat (winter wheat; location 4 (loamy sand)): 56.0 dt/ha
N#CN=C(N)N [DCD, reference compound]							8036	7022	4728	4274	87	47	68	44	82	35	39	29	grain produce of winter wheat (winter wheat; location 2 (lean clay)): 94.3 dt/ha; grain produce of winter wheat (winter wheat; location 4 (loamy sand)): 52.6 dt/ha
Cc1nn(CO)cc1Cl [N-hydroxy-4Cl-3MP, N-hydroxymethyl-4-chloro-3-methylpyrazole]		87	58	45	30	15													
Cc1cn(CO)nc1C [N-hydroxyl-3,4-DMP, N-hydroxymethyl-3,4-dimethylpyrazole]		85	54	40	31	10													

Now from value to compound, other results behind:

Loss in percent (loss of nitrification inhibitor during storage) [1] [%]	Compound	% inhibition per applied amount of ammonium (nitrification [2]; column head 1) [%]	% inhibition per applied amount of ammonium (nitrification [2]; column head 2) [%]	% inhibition per applied amount of ammonium (nitrification [2]; column head 4) [%]	% inhibition per applied amount of ammonium (nitrification [2]; column head 6) [%]	% inhibition per applied amount of ammonium (nitrification [2]; column head 8) [%]	Ø NO3 amount in the basis of the stem of rape plants (rape plants; 2 weeks after application) [ppm]	Ø NO3 amount in the basis of the stem of rape plants (rape plants; 4 weeks after application) [ppm]	Ø NO3 amount in the basis of the stem of rape plants (rape plants; 6 weeks after application) [ppm]	Ø NO3 amount in the basis of the stem of rape plants (rape plants; 8 weeks after application) [ppm]	Ø NH4-N amount in soil (nitrification [3]; 2 weeks after application) [kg/ha]	Ø NO3-N amount in soil (nitrification [3]; 2 weeks after application) [kg/ha]	Ø NH4-N amount in soil (nitrification [3]; 4 weeks after application) [kg/ha]	Ø NO3-N amount in soil (nitrification [3]; 4 weeks after application) [kg/ha]	Ø NH4-N amount in soil (nitrification [3]; 6 weeks after application) [kg/ha]	Ø NO3-N amount in soil (nitrification [3]; 6 weeks after application) [kg/ha]	Ø NH4-N amount in soil (nitrification [3]; 8 weeks after application) [kg/ha]	Ø NO3-N amount in soil (nitrification [3]; 8 weeks after application) [kg/ha]	further results
31	Cc1cn[nH]c1C.O=P(O)(O)O [3,4-Dimethylpyrazole phosphate, 3,4-dimethylpyrazolium dihydrogen Phosphate]																		
55	Cc1cc[nH]n1.O=P(O)(O)O [3-Methylpyrazole phosphate, reference compound]																		
100	Cc1cc[nH]n1 [3-Methylpyrazole, reference compound]	90	58	45	27	22													
92	Cc1[nH]ncc1Cl.O=P(O)(O)O [4-Chloro-3-methylpyrazole phosphate, 4-chloro-3-methylpyrazolium dihydrogen Phosphate]	91	62	53	45	27													
